From paper PMC6792352, “Limited Chemical Structural Diversity Found to Modulate Thyroid Hormone Receptor in the Tox21 Chemical Library” (Environmental Health Perspectives, 2019) come the findings set out here.

Counter-ions that a name gives are not always drawn.

A short description of the data set: in vitro. The settings on record: rat, gh3-tre-luc cells.

The term CC50 denotes the concentration at which the toxic effect on the cells reaches its halfway point. As to `Cc1ccc2oc(CN(Cc3ccccc3)C(=O)Nc3c(F)cc(F)cc3F)c(-c3ccc(Cl)cc3)c2c1` [FR145237], the CC50 at 24 h (AC50 (uM) modified / 1000) was over 80 µM.
Still for that read-out and setting: next, `CCCCOc1ccc(C(=O)CCN2CCCCC2)cc1` [Dyclonine hydrochloride]: 4.72 µM.
Under “AC50 (uM) modified / 1000, Tox21_110001=Tox21_200640, viability, 1 nM T3 present, 24 h”, `C=C(Cl)CCl` [2,3-Dichloro-1-propene] registered a 50% cytotoxic concentration (CC50) at 24 h of over 90 µM.
For the setting “AC50 (uM) modified / 1000”, `CC(C)CC=O` [3-Methylbutanal] registered a CC50 at 24 h of over 90 µM.
Still for that read-out and setting: next, `CO/N=C(\C(=O)N[C@@H]1C(=O)N2C(C(=O)O)=C(CSc3cnns3)CS[C@H]12)c1csc(N)n1` [Cefuzonam hydrochloride]: over 50 µM.
The same measure, in the same setting: the result for `C[N+](C)(CCCCCC[N+](C)(C)C1c2ccccc2-c2ccccc21)C1c2ccccc2-c2ccccc21` [Hexafluorenium dibromide] reads over 50 µM; that for `CCc1ncnc2cc(OC)c(OC)cc12` [Quazodine], over 50 µM.
For `CCCCCC/C=C/CCCCCCCC(=O)O` [(E)-Hexadec-9-enoic acid], the CC50 at 24 h (AC50 (uM) modified / 1000) was over 90 µM.
As to `CN(C)CCO` [Dimethylaminoethanol], for the setting “AC50 (uM) modified / 1000”, the CC50 at 24 h is over 90 µM.
Compound `Oc1ccc(-c2ccccc2)cc1Cl` [2-Chloro-4-phenylphenol] came in with a CC50 at 24 h (AC50 (uM) modified / 1000) of 81 µM.
Same read-out and setting: the result for `Cc1ncc(CSSCc2cnc(C)c(O)c2CO)c(CO)c1O` [Pyrithioxin dihydrochloride] reads over 50 µM; that for `CC/C(=C\C(=N/O)C(N)=O)C(C)[N+](=O)[O-]` (centres unmarked) [FR900409], over 90 µM; that for `CCC(=O)Nc1cccc(N)c1` [N-(3-Aminophenyl)propanamide], over 90 µM.
Still for that read-out and setting: the result for `CCCCCCCCC` [Nonane] reads over 90 µM; that for `Nc1nc(=O)[nH]cc1F` [Flucytosine], over 20 µM.
On the same count and under the same terms, next, `Cc1ccccc1C(=O)N1CC/C(=N\OS(=O)(=O)O)c2ccc(Cl)cc21` [Alilusem potassium]: over 50 µM; `O=S(=O)(O)c1ccc(O)c2ncccc12` [8-Hydroxyquinoline-5-sulfonic acid hydrate (1:x)]: over 90 µM; `O=Cc1ccc(C(=O)O)cc1` [4-Carboxybenzaldehyde]: over 90 µM.
Compound `CCCCN(CCCC)C(=O)N(CCCC)CCCC` [1,1,3,3-Tetrabutylurea] registered a CC50 at 24 h (AC50 (uM) modified / 1000) of over 90 µM.
On the same count and under the same terms, the result for `CN1CCN(c2cc3c(cc2F)c(=O)c(C(=O)O)cn3-c2ccc(F)cc2)CC1` [Difloxacin hydrochloride] reads over 50 µM.
The same measure, in the same setting: next, `C/C=C/c1ccc(OC)cc1` [Anethole]: over 90 µM; `CCO[Si](CCCNC(N)=O)(OCC)OCC` [1-[3-(Triethoxysilyl)propyl]urea]: over 90 µM; `C=CC(=O)CCCCC` [1-Octen-3-one]: over 100 µM.
Turning to `CC(C)(CCl)C(=O)Cl` [3-Chloro-2,2-dimethylpropanoyl chloride], the CC50 at 24 h (AC50 (uM) modified / 1000) was over 90 µM.
In the case of `C[C@@H](CN1CC(=O)NC(=O)C1)N1CC(=O)NC(=O)C1` [Dexrazone], the CC50 at 24 h (AC50 (uM) modified / 1000) was over 50 µM.
As for `CCSC(=O)N(CC)CC` [Ethiolate], the CC50 at 24 h (AC50 (uM) modified / 1000) was over 90 µM.
In the case of `O=C(Cl)c1cccc(C(=O)Cl)c1` [1,3-Benzenedicarbonyl dichloride], the CC50 at 24 h (AC50 (uM) modified / 1000) is over 90 µM.
In the case of `CCCCCCCCCCCCN1CCOCC1` [4-Dodecylmorpholine], the CC50 at 24 h (AC50 (uM) modified / 1000) is over 90 µM.
Same read-out and setting: the result for `NC(=O)c1ccccc1C(N)=O` [Phthalamide] reads over 90 µM; that for `CCC/C(=N\OCC)C1=C(O)CC(CC(C)SCC)CC1=O` (centres unmarked) [Sethoxydim], over 90 µM.
For `OCCN1C[C@H](O)[C@@H](O)[C@H](O)[C@H]1CO` [Miglitol], the CC50 at 24 h (AC50 (uM) modified / 1000) was over 50 µM.
In the case of `NC(CCC(=O)O)C(=O)O` (racemic) [DL-Glutamic acid monohydrate], the CC50 at 24 h (AC50 (uM) modified / 1000) was over 80 µM.
Same read-out and setting: next, `CC[C@H]1OC(=O)[C@H](C)[C@@H](O[C@H]2C[C@@](C)(OC)[C@@H](O)[C@H](C)O2)[C@H](C)[C@@H](O[C@@H]2O[C@H](C)C[C@H](N(C)C)[C@H]2O)[C@](C)(O)C[C@@H](C)[C@@H]2N[C@@H](COCCOC)O[C@H]([C@H]2C)[C@]1(C)O` [Dirithromycin]: over 50 µM; `CC(C)=CCC/C(C)=C/C=C/C(C)=C/C=C/C(C)=C/C=C/C=C(C)/C=C/C=C(C)/C=C/C=C(\C)CCC=C(C)C` [Lycopene]: over 50 µM; `FC(F)(Cl)C(F)(Cl)Cl` [1,1,2-Trichloro-1,2,2-trifluoroethane]: over 90 µM.
In turn, `CC(=O)Nc1ccc(C(=O)O)cc1` [4-Acetamidobenzoic acid] came in with a CC50 at 24 h (AC50 (uM) modified / 1000) of over 90 µM.
As to `CCCCCCCCCCN` [1-Decanamine], where the note is “AC50 (uM) modified / 1000”, the 50% cytotoxic concentration (CC50) at 24 h was over 90 µM.
Same read-out and setting: the result for `CCC(=O)C=CC1C(C)=CCCC1(C)C` (centres unmarked) [1-(2,6,6-Trimethyl-2-cyclohexen-1-yl)-1-penten-3-one] reads over 90 µM; that for `CNC(=O)c1ccccc1` [N-Methylbenzamide], over 90 µM.
In the case of `CC(C)/N=c1\cc2n(-c3ccc(Cl)cc3)c3ccccc3nc-2cc1Nc1ccc(Cl)cc1` [Clofazimine], it took 5.75 µM to reach half-maximal cytotoxicity (AC50 (uM) modified / 1000) (CC50 at 24 h).
Still for that read-out and setting: the result for `CC(C)(C)C(=O)OCC(=O)[C@H]1CC[C@H]2[C@@H]3CCC4=CC(=O)CC[C@]4(C)[C@H]3CC[C@]12C` [Desoxycorticosterone pivalate] reads over 50 µM.
Under “AC50 (uM) modified / 1000”, `CCC1(c2ccccc2)C(=O)NC(=O)NC1=O` [Phenobarbital] came in with a CC50 at 24 h of over 90 µM.
Consider `C[C@]12C=CC(=O)C=C1CC[C@@H]1[C@@H]2CC[C@]2(C)OC(=O)CC[C@@H]12` [Testolactone], for which, for the setting “AC50 (uM) modified / 1000, Tox21_110001=Tox21_111576, viability, 1 nM T3 present, 24 h”, the CC50 at 24 h was over 50 µM.
For `Cc1c(-c2cccnc2)c2ccccc2n1CCCCC(=O)O` [UK-156819], under “AC50 (uM) modified / 1000”, the half-maximal cytotoxic concentration (CC50) at 24 h was over 90 µM.
The same measure, in the same setting: the result for `CC(Cl)=CCCl` [1,3-Dichloro-2-butene] reads over 90 µM.
In turn, `CC(C)(C)c1ccc(CCC=O)cc1` [3-(4-tert-Butylphenyl)propanal] returned a CC50 at 24 h (AC50 (uM) modified / 1000) of over 90 µM.
`C=CC(=C)CC/C=C(\C)CC/C=C(/C)C=O` [Orange terpenes] gave a cytotoxic concentration (CC50) at 24 h (AC50 (uM) modified / 1000) of 42.9 µM.
Same read-out and setting: the result for `CC(CC=O)CCCC(C)(C)O` (centres unmarked) [Hydroxycitronella] reads over 90 µM; that for `CN1CCC(=C2c3ccccc3CCc3sccc32)CC1` [Pizotyline], 10.6 µM.
On the same count and under the same terms, the result for `CCC1COC(=O)O1` (centres unmarked) [Butylene carbonate] reads over 90 µM; that for `CCCCC(CC)(CO)CO` [2-Butyl-2-ethyl-1,3-propanediol], over 90 µM; that for `CC(O)(P(=O)(O)O)P(=O)(O)O` [Etidronic acid], over 90 µM.
The same measure, in the same setting: next, `CCOCCOC(C)=O` [2-Ethoxyethyl acetate]: over 90 µM; `CN(C)CCN1C(=O)c2ccccc2N(C)c2ccccc21` [Dibenzepin hydrochloride]: over 50 µM; `C=CC(=O)NC(C)(C)C` [tert-Butylacrylamide]: over 90 µM.
For the compound `OC(c1ccccc1)(c1ccccc1)C1CN2CCC1CC2` (centres unmarked) [Quifenadine], for the setting “AC50 (uM) modified / 1000”, the midpoint of cytotoxicity, the CC50 at 24 h, lay at 35.6 µM.
Same read-out and setting: the result for `Nc1nc2[nH]cc(CCc3ccc(C(=O)N[C@@H](CCC(=O)O)C(=O)O)cc3)c2c(=O)[nH]1` [Pemetrexed disodium] reads over 50 µM.
Take `Cc1ccc([N+](=O)[O-])cc1C` [1,2-Dimethyl-4-nitrobenzene]: where the note is “AC50 (uM) modified / 1000, Tox21_110001=Tox21_201332, viability, 1 nM T3 present, 24 h”, the CC50 at 24 h was over 90 µM.
Regarding `CC(=O)c1ccc(O)cc1` [4-Hydroxyacetophenone], the CC50 at 24 h (AC50 (uM) modified / 1000) was over 90 µM.
Same read-out and setting: the result for `CC(=O)Nc1ccc(C)cc1` [N-Acetyl-p-toluidine] reads over 90 µM.
`Cc1nc(C)c(C)nc1C` [Tetramethylpyrazine]: the cytotoxic concentration (CC50) at 24 h (AC50 (uM) modified / 1000) was over 90 µM.
Same read-out and setting: next, `CCO[C@@H](Cc1ccc(OCCc2ccc(OS(C)(=O)=O)cc2)cc1)C(=O)O` [Tesaglitazar]: over 50 µM.
Compound `Cc1ccnc(N)c1` [4-Methylpyridin-2-amine] registered a CC50 at 24 h (AC50 (uM) modified / 1000) of over 90 µM.
As for `COP(=S)(OC)SCN1C(=O)c2ccccc2C1=O` [Phosmet], the cytotoxic concentration (CC50) at 24 h is over 50 µM (AC50 (uM) modified / 1000, Tox21_110001=Tox21_110993, viability, 1 nM T3 present, 24 h) and over 90 µM (AC50 (uM) modified / 1000, Tox21_110001=Tox21_202316, viability, 1 nM T3 present, 24 h).
`CC(C)(C)CCCCCC(=O)O` [Neodecanoic acid]: the CC50 at 24 h (AC50 (uM) modified / 1000) is over 90 µM.
The same measure, in the same setting: the result for `NS(=O)(=O)c1cc2c(cc1Cl)NCNS2(=O)=O` [Hydrochlorothiazide] reads over 90 µM.
`CC(=O)c1cc2c(cc1C)C(C)(C)C(C)CC2(C)C` (centres unmarked) [6-Acetyl-1,1,2,4,4,7-hexamethyltetralin]: it took 45.6 µM to reach half-maximal cytotoxicity (AC50 (uM) modified / 1000, Tox21_110001=Tox21_301256, viability, 1 nM T3 present, 24 h) (CC50 at 24 h).
The compound `Cc1nn(C)c(Oc2ccccc2)c1C=NOCc1ccc(C(=O)OC(C)(C)C)cc1` [Fenpyroximate (Z,E)] showed a CC50 at 24 h (AC50 (uM) modified / 1000) of 59.7 µM.
The same measure, in the same setting: the result for `CN1[C@@H]2CC[C@H]1CC(OC(c1ccccc1)c1ccccc1)C2` (some centres unmarked) [Benztropine methylsulfonate] reads 20.1 µM; that for `CNC(=NCCSCc1csc(N=C(N)N)n1)NC#N` [Tiotidine], over 50 µM.
Consider `Cc1ccc(N)cc1C` [3,4-Dimethylaniline], for which the CC50 at 24 h (AC50 (uM) modified / 1000) was over 90 µM.
On to `Oc1cc2c(cc1O)[C@@H]1c3ccc(O)c(O)c3OC[C@]1(O)C2` [Hematoxylin], for which the midpoint of cytotoxicity (AC50 (uM) modified / 1000), the CC50 at 24 h, lay at 69.9 µM.
The compound `CO[C@@]1(NC(=O)Cc2cccs2)C(=O)N2C(C(=O)O)=C(COC(N)=O)CS[C@@H]21` [Cefoxitin] showed a CC50 at 24 h (AC50 (uM) modified / 1000) of over 50 µM.
Take `CCN(CC)C1CCCCC1` [N,N-Diethylcyclohexylamine]: the CC50 at 24 h (AC50 (uM) modified / 1000) was over 90 µM.
In the case of `O=C(O)c1cc(-c2ccc(F)cc2F)ccc1O` [Diflunisal], the CC50 at 24 h (AC50 (uM) modified / 1000) was over 20 µM.
For `C=CC1=C(C)c2cc3[nH]c(cc4nc(cc5[nH]c(cc1n2)c(C)c5CCC(=O)O)C(CCC(=O)O)=C4C)c(C)c3C=C` [Protoporphyrin disodium], the CC50 at 24 h (AC50 (uM) modified / 1000) was over 50 µM.
